Source: the kinase profiling compilation of Christmann-Franck et al. (2016)

How the values were obtained:
AAK1 (human) = AAK1 (human) (UniProt Q2M2I8); assay: KINOMEscan competition binding; conditions: compound 10.0 µM
BMPR1B (human) = BMPR1B (human) (UniProt O00238); assay: KINOMEscan competition binding; conditions: compound 10.0 µM
CAMKK1 (human) = CAMKK1 (human) (UniProt Q8N5S9); assay: KINOMEscan competition binding; conditions: compound 10.0 µM
CDK16 (human) = CDK16 (human) (UniProt Q00536); assay: KINOMEscan competition binding; conditions: compound 10.0 µM
CDK7 (human) = CDK7 (human) (UniProt P50613); assay: KINOMEscan competition binding; conditions: compound 10.0 µM
CLK1 (human) = CLK1 (human) (UniProt P49759); assay: KINOMEscan competition binding; conditions: compound 10.0 µM
CLK2 (human) = CLK2 (human) (UniProt P49760); assay: KINOMEscan competition binding; conditions: compound 10.0 µM
CLK3 (human) = CLK3 (human) (UniProt P49761); assay: KINOMEscan competition binding; conditions: compound 10.0 µM
CLK4 (human) = CLK4 (human) (UniProt Q9HAZ1); assay: KINOMEscan competition binding; conditions: compound 10.0 µM
CSNK2A1 (human) = CSNK2A1 (human) (UniProt P68400); assay: KINOMEscan competition binding; conditions: compound 10.0 µM
CSNK2A2 (human) = CSNK2A2 (human) (UniProt P19784); assay: KINOMEscan competition binding; conditions: compound 10.0 µM
DAPK1 (human) = DAPK1 (human) (UniProt P53355); assay: KINOMEscan competition binding; conditions: compound 10.0 µM
DAPK2 (human) = DAPK2 (human) (UniProt Q9UIK4); assay: KINOMEscan competition binding; conditions: compound 10.0 µM
DAPK3 (human) = DAPK3 (human) (UniProt O43293); assay: KINOMEscan competition binding; conditions: compound 10.0 µM
GAK (human) = GAK (human) (UniProt O14976); assay: KINOMEscan competition binding; conditions: compound 10.0 µM
HIPK1 (human) = HIPK1 (human) (UniProt Q86Z02); assay: KINOMEscan competition binding; conditions: compound 10.0 µM
[1] = target: JAK1 JH2 pseudokinase (human) (UniProt P23458); assay: KINOMEscan competition binding; conditions: compound 10.0 µM
MAP2K2 (human) = MAP2K2 (human) (UniProt P36507); assay: KINOMEscan competition binding; conditions: compound 10.0 µM
MAP2K3 (human) = MAP2K3 (human) (UniProt P46734); assay: KINOMEscan competition binding; conditions: compound 10.0 µM
MAP3K7 (human) = MAP3K7 (human) (UniProt O43318); assay: KINOMEscan competition binding; conditions: compound 10.0 µM
MAPK15 (human) = MAPK15 (human) (UniProt Q8TD08); assay: KINOMEscan competition binding; conditions: compound 10.0 µM
MAPKAPK5 (human) = MAPKAPK5 (human) (UniProt Q8IW41); assay: KINOMEscan competition binding; conditions: compound 10.0 µM
MKNK2 (human) = MKNK2 (human) (UniProt Q9HBH9); assay: KINOMEscan competition binding; conditions: compound 10.0 µM
MYLK (human) = MYLK (human) (UniProt Q15746); assay: KINOMEscan competition binding; conditions: compound 10.0 µM
MYLK3 (human) = MYLK3 (human) (UniProt Q32MK0); assay: KINOMEscan competition binding; conditions: compound 10.0 µM
PIK3CG (human) = PIK3CG (human) (UniProt P48736); assay: KINOMEscan competition binding; conditions: compound 10.0 µM
PIM1 (human) [2] = target: PIM1 (human) (UniProt P11309); assay: KINOMEscan competition binding; conditions: compound 10.0 µM
PIM2 (human) [3] = target: PIM2 (human) (UniProt Q9P1W9); assay: KINOMEscan competition binding; conditions: compound 10.0 µM
PIM3 (human) = PIM3 (human) (UniProt Q86V86); assay: KINOMEscan competition binding; conditions: compound 10.0 µM
PIP4K2B (human) = PIP4K2B (human) (UniProt P78356); assay: KINOMEscan competition binding; conditions: compound 10.0 µM
PLK4 (human) = PLK4 (human) (UniProt O00444); assay: KINOMEscan competition binding; conditions: compound 10.0 µM
RIOK2 (human) = RIOK2 (human) (UniProt Q9BVS4); assay: KINOMEscan competition binding; conditions: compound 10.0 µM
RIPK4 (human) = RIPK4 (human) (UniProt P57078); assay: KINOMEscan competition binding; conditions: compound 10.0 µM
ROCK2 (human) = ROCK2 (human) (UniProt O75116); assay: KINOMEscan competition binding; conditions: compound 10.0 µM
RPS6KA1 KD2 (human) = RPS6KA1 KD2 (human) (UniProt Q15418); assay: KINOMEscan competition binding; conditions: compound 10.0 µM
RPS6KA2 KD2 (human) = RPS6KA2 KD2 (human) (UniProt Q15349); assay: KINOMEscan competition binding; conditions: compound 10.0 µM
RPS6KA4 KD2 (human) = RPS6KA4 KD2 (human) (UniProt O75676); assay: KINOMEscan competition binding; conditions: compound 10.0 µM
RPS6KA6 KD2 (human) = RPS6KA6 KD2 (human) (UniProt Q9UK32); assay: KINOMEscan competition binding; conditions: compound 10.0 µM
STK17A (human) = STK17A (human) (UniProt Q9UEE5); assay: KINOMEscan competition binding; conditions: compound 10.0 µM
STK17B (human) = STK17B (human) (UniProt O94768); assay: KINOMEscan competition binding; conditions: compound 10.0 µM
STK24 (human) = STK24 (human) (UniProt Q9Y6E0); assay: KINOMEscan competition binding; conditions: compound 10.0 µM
TAOK1 (human) = TAOK1 (human) (UniProt Q7L7X3); assay: KINOMEscan competition binding; conditions: compound 10.0 µM
TAOK3 (human) = TAOK3 (human) (UniProt Q9H2K8); assay: KINOMEscan competition binding; conditions: compound 10.0 µM
TLK1 (human) = TLK1 (human) (UniProt Q9UKI8); assay: KINOMEscan competition binding; conditions: compound 10.0 µM
[4] = target: TYK2 JH2 pseudokinase (human) (UniProt P29597); assay: KINOMEscan competition binding; conditions: compound 10.0 µM
PIM1 (human) [5] = target: PIM1 (human) (UniProt P11309); assay: SelectScreen, TR FRET
PIM2 (human) [6] = target: PIM2 (human) (UniProt Q9P1W9); assay: SelectScreen, TR FRET

Sequence of PIM1 (human) (P11309 whole entry, looked up): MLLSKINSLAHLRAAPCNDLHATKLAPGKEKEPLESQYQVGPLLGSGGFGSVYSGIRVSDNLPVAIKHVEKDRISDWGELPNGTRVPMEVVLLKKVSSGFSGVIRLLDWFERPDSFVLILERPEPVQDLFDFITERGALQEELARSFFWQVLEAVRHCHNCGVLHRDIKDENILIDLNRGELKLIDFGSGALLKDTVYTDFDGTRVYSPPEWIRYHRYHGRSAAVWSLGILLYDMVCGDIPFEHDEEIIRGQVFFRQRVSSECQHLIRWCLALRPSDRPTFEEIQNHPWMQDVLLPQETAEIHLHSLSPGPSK
Sequence of PIM2 (human) (Q9P1W9 whole entry, looked up): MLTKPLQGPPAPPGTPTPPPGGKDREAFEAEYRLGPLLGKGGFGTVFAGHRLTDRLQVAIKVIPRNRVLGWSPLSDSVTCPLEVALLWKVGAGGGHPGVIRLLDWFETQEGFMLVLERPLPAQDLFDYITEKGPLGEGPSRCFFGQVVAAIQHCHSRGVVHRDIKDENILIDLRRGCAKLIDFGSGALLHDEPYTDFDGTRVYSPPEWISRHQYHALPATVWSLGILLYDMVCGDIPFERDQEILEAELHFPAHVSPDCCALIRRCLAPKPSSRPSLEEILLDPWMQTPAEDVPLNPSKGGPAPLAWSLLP
Sequence of CAMKK1 (human) (Q8N5S9 whole entry, looked up): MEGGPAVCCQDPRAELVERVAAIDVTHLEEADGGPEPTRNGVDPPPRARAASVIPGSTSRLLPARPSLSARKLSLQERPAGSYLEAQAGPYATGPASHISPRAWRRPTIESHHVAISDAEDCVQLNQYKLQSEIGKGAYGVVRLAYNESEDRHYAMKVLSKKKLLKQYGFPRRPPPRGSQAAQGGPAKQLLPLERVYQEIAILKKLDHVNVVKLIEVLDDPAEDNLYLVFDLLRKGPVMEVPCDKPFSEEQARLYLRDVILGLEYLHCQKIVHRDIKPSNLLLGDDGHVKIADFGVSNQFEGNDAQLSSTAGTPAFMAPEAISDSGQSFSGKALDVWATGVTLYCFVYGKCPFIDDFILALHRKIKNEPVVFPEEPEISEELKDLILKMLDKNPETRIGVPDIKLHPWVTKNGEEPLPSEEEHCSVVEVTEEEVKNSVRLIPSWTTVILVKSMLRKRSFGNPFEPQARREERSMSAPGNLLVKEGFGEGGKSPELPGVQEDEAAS
Sequence of TYK2 JH2 pseudokinase (human) (P29597 whole entry, looked up): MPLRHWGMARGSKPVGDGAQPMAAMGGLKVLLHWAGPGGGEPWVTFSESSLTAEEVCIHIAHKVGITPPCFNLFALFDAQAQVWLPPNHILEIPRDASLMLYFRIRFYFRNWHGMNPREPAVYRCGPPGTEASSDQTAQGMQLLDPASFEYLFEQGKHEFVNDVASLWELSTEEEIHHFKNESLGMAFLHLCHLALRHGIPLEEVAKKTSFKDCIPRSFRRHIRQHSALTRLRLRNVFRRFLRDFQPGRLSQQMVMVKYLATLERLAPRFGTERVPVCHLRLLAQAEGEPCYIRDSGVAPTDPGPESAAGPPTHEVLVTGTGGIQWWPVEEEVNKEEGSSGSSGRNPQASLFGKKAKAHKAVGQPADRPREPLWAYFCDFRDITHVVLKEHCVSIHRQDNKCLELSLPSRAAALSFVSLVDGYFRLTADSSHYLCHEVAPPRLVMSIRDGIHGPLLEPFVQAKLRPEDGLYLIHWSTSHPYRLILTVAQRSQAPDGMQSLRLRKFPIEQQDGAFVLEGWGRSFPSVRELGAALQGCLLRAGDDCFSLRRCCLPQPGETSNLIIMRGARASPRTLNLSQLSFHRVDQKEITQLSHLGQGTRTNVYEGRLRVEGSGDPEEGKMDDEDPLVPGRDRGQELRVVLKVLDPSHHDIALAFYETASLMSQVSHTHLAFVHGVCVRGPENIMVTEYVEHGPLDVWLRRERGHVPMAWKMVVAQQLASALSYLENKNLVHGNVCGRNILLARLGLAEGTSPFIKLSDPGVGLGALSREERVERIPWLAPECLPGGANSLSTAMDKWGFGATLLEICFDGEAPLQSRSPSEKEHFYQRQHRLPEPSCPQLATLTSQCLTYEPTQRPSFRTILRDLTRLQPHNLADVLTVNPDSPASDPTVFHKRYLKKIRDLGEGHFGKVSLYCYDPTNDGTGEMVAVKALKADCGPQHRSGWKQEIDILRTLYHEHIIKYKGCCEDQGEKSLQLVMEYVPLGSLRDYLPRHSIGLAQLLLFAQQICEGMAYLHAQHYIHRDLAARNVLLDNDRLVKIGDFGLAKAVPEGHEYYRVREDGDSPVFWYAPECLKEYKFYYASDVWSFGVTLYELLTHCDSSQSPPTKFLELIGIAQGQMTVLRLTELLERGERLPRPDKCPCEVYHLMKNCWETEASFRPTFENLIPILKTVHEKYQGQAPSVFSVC
Sequence of CSNK2A2 (human) (P19784 whole entry, looked up): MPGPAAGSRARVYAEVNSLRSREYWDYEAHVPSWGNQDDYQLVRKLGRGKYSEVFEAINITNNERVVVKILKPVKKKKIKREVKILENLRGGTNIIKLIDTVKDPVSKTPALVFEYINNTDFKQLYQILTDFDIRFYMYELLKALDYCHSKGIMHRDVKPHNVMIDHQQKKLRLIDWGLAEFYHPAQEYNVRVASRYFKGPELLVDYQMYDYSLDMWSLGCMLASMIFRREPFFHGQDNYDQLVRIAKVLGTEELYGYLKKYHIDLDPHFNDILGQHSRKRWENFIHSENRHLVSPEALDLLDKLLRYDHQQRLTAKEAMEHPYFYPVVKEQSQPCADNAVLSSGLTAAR
Sequence of MAPKAPK5 (human) (Q8IW41 whole entry, looked up): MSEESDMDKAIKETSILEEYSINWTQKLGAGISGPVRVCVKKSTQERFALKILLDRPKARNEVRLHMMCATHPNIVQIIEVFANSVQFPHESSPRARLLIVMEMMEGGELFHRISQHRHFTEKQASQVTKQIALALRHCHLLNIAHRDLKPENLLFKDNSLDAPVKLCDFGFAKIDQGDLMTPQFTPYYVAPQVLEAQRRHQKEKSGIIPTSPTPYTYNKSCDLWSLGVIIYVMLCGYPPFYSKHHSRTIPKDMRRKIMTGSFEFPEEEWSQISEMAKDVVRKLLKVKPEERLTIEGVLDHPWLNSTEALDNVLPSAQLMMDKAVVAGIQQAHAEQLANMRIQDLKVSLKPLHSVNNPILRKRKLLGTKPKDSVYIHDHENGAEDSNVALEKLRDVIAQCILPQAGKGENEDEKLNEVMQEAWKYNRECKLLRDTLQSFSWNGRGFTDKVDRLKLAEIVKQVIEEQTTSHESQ
Sequence of CLK3 (human) (P49761 whole entry, looked up): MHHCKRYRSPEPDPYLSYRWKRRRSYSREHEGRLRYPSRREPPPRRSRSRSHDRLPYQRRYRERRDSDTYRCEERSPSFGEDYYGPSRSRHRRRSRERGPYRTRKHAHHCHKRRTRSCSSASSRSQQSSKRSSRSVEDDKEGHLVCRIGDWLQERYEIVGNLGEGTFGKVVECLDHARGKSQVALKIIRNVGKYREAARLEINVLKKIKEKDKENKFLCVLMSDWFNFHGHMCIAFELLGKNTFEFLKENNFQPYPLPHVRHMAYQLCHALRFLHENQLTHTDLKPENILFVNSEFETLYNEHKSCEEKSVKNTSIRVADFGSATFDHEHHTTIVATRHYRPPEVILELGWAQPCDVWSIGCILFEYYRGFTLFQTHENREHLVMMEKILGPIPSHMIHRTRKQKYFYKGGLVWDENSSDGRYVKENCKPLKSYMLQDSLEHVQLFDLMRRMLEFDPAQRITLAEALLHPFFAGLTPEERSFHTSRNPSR
Sequence of MYLK3 (human) (Q32MK0 whole entry, looked up): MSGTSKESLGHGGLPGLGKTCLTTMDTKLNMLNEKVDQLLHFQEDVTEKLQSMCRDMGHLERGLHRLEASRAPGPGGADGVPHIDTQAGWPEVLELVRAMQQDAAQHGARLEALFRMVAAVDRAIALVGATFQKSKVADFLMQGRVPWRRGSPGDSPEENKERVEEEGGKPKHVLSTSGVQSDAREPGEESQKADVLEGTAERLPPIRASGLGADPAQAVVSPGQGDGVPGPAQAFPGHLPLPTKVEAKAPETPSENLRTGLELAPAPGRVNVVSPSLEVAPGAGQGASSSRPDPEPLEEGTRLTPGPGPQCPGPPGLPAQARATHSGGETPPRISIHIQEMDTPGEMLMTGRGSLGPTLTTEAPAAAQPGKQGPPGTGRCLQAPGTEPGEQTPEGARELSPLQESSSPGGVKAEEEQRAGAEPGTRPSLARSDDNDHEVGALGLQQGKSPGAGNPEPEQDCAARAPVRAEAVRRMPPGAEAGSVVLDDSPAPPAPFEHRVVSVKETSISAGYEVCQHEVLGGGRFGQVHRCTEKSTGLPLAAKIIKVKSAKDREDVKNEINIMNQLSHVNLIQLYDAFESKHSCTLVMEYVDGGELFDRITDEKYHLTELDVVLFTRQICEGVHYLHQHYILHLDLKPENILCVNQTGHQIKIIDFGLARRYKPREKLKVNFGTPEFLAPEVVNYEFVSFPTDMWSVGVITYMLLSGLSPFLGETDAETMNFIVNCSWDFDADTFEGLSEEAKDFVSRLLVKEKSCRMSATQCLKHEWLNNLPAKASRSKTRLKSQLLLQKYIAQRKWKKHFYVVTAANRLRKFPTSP
Sequence of DAPK3 (human) (O43293 whole entry, looked up): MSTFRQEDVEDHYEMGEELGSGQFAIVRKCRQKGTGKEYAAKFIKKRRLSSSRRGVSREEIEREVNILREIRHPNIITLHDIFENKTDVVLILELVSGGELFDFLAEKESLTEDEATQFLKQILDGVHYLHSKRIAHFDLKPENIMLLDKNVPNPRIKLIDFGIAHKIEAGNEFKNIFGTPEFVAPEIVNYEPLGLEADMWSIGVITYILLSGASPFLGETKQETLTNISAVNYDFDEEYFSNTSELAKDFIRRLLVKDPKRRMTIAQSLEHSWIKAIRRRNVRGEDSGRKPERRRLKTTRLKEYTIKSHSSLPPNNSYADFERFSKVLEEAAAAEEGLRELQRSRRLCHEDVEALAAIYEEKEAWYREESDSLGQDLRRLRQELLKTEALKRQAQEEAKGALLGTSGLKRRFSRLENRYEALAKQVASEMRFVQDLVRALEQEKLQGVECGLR

kinase still bound, per cent of control (AAK1 (human)): 31% | kinase still bound, per cent of control (BMPR1B (human)): 19% | kinase still bound, per cent of control (CAMKK1 (human)): 32% | kinase still bound, per cent of control (CDK16 (human)): 18% | kinase still bound, per cent of control (CDK7 (human)): 3.2% | kinase still bound, per cent of control (CLK1 (human)): 2.4% | kinase still bound, per cent of control (CLK2 (human)): 2% | kinase still bound, per cent of control (CLK3 (human)): 25% | kinase still bound, per cent of control (CLK4 (human)): 5.8% | kinase still bound, per cent of control (CSNK2A1 (human)): 20% | kinase still bound, per cent of control (CSNK2A2 (human)): 19% | kinase still bound, per cent of control (DAPK1 (human)): 12% | kinase still bound, per cent of control (DAPK2 (human)): 14% | kinase still bound, per cent of control (DAPK3 (human)): 15% | kinase still bound, per cent of control (GAK (human)): 29% | kinase still bound, per cent of control (HIPK1 (human)): 0.65% | kinase still bound, per cent of control [1]: 26% | kinase still bound, per cent of control (MAP2K2 (human)): 33% | kinase still bound, per cent of control (MAP2K3 (human)): 30% | kinase still bound, per cent of control (MAP3K7 (human)): 8.6% | kinase still bound, per cent of control (MAPKAPK5 (human)): 32% | kinase still bound, per cent of control (MKNK2 (human)): 27% | kinase still bound, per cent of control (MYLK (human)): 32% | kinase still bound, per cent of control (MYLK3 (human)): 15% | kinase still bound, per cent of control (PIK3CG (human)): 2.1% | kinase still bound, per cent of control (PIM1 (human) [2]): 5.6% | kinase still bound, per cent of control (PIM2 (human) [3]): 0.5% | kinase still bound, per cent of control (PIM3 (human)): 9% | kinase still bound, per cent of control (PIP4K2B (human)): 34% | kinase still bound, per cent of control (PLK4 (human)): 23% | kinase still bound, per cent of control (RIOK2 (human)): 29% | kinase still bound, per cent of control (RIPK4 (human)): 5.5% | kinase still bound, per cent of control (ROCK2 (human)): 21% | kinase still bound, per cent of control (RPS6KA1 KD2 (human)): 21% | kinase still bound, per cent of control (RPS6KA2 KD2 (human)): 25% | kinase still bound, per cent of control (RPS6KA4 KD2 (human)): 3.4% | kinase still bound, per cent of control (RPS6KA6 KD2 (human)): 27% | kinase still bound, per cent of control (STK17A (human)): 0.1% | kinase still bound, per cent of control (STK17B (human)): 0.6% | kinase still bound, per cent of control (STK24 (human)): 25% | kinase still bound, per cent of control (TAOK1 (human)): 5.4% | kinase still bound, per cent of control (TAOK3 (human)): 7.4% | kinase still bound, per cent of control (TLK1 (human)): 14% | kinase still bound, per cent of control [4]: 10% | IC50 (PIM1 (human) [5]): 128 nM | IC50 (PIM2 (human) [6]): 144 nM
Compound: N=C1NC(=O)/C(=C/c2ccc(-c3ccc(C(=O)Nc4ccc(N5CCNCC5)cc4)cc3O)o2)S1
kinase still bound, per cent of control (MAPK15 (human)): 0.95%
